PubChem BioAssay (NCI)
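How tested: cells in 96-well plates exposed to compound for 48 hours at five concentrations. At the TGI there is no net growth.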

What was measured:
Assay in all cases: inhibition of tumour cell growth, NCI panel, 48 h
M14 melanoma = tested on: M14 melanoma
COLO 205 colon = tested on: COLO 205 colon
PC-3 prostate = tested on: PC-3 prostate
MDA-MB-231 breast = tested on: MDA-MB-231 breast
HCT-116 colon = tested on: HCT-116 colon
SK-MEL-2 melanoma = tested on: SK-MEL-2 melanoma
A549 NSCLC = tested on: A549 NSCLC
HCT-15 colon = tested on: HCT-15 colon
OVCAR-8 ovarian = tested on: OVCAR-8 ovarian
UACC-62 melanoma = tested on: UACC-62 melanoma
HCC-2998 colon = tested on: HCC-2998 colon
NCI-H226 lung = tested on: NCI-H226 lung
SF-268 CNS = tested on: SF-268 CNS
UO-31 renal = tested on: UO-31 renal
OVCAR-4 ovarian = tested on: OVCAR-4 ovarian
ACHN renal = tested on: ACHN renal
HOP-92 NSCLC = tested on: HOP-92 NSCLC
U251 CNS = tested on: U251 CNS
OVCAR-5 ovarian = tested on: OVCAR-5 ovarian
SK-MEL-28 melanoma = tested on: SK-MEL-28 melanoma
786-0 renal = tested on: 786-0 renal
RPMI-8226 leukemia = tested on: RPMI-8226 leukemia
EKVX NSCLC = tested on: EKVX NSCLC
SF-539 CNS = tested on: SF-539 CNS
MALME-3M melanoma = tested on: MALME-3M melanoma
TK-10 renal = tested on: TK-10 renal
NCI-H23 lung = tested on: NCI-H23 lung
SK-MEL-5 melanoma = tested on: SK-MEL-5 melanoma
HOP-62 NSCLC = tested on: HOP-62 NSCLC
DU-145 prostate = tested on: DU-145 prostate
KM12 colon = tested on: KM12 colon
MDA-N = tested on: MDA-N
SNB-19 CNS = tested on: SNB-19 CNS
HS 578T breast = tested on: HS 578T breast
T-47D breast = tested on: T-47D breast
RXF 393 renal = tested on: RXF 393 renal
SW-620 colon = tested on: SW-620 colon
NCI-H522 lung = tested on: NCI-H522 lung
SN12C renal = tested on: SN12C renal
HT29 colon = tested on: HT29 colon
K-562 leukemia = tested on: K-562 leukemia
A498 renal = tested on: A498 renal
MOLT-4 leukemia = tested on: MOLT-4 leukemia
SR leukemia = tested on: SR leukemia
OVCAR-3 ovarian = tested on: OVCAR-3 ovarian
HL-60(TB) leukemia = tested on: HL-60(TB) leukemia
MCF7 breast = tested on: MCF7 breast
CCRF-CEM leukemia = tested on: CCRF-CEM leukemia
MDA-MB-435 = tested on: MDA-MB-435
NCI-H460 lung = tested on: NCI-H460 lung
LOX IMVI melanoma = tested on: LOX IMVI melanoma
UACC-257 melanoma = tested on: UACC-257 melanoma
IGROV1 ovarian = tested on: IGROV1 ovarian
NCI/ADR-RES ovarian = tested on: NCI/ADR-RES ovarian
SNB-75 CNS = tested on: SNB-75 CNS
SK-OV-3 ovarian = tested on: SK-OV-3 ovarian
SF-295 CNS = tested on: SF-295 CNS
CAKI-1 renal = tested on: CAKI-1 renal

CC(C)C1=CC23CCC4C(C)(C(=O)O)CCCC4(C)C2CC1C1C(=O)N(c2ccc(Cc4ccc(N5C(=O)C6C7CC8C9(C)CCCC(C)(C(=O)O)C9CCC8(C=C7C(C)C)C6C5=O)cc4)cc2)C(=O)C13 (stereo not drawn)
TGI (M14 melanoma): 22.1 µM | TGI (COLO 205 colon): 26.4 µM | TGI (PC-3 prostate): 15.7 µM | TGI (MDA-MB-231 breast): 58.8 µM | TGI (HCT-116 colon): 19.1 µM | TGI (SK-MEL-2 melanoma): 26.4 µM | TGI (A549 NSCLC): 15.7 µM | TGI (HCT-15 colon): 24.5 µM | TGI (OVCAR-8 ovarian): 22.5 µM | TGI (UACC-62 melanoma): 29.7 µM | TGI (HCC-2998 colon): 21.7 µM | TGI (NCI-H226 lung): 28.4 µM | TGI (SF-268 CNS): 27.4 µM | TGI (UO-31 renal): 31.3 µM | TGI (OVCAR-4 ovarian): 33.2 µM | TGI (ACHN renal): 17.8 µM | TGI (HOP-92 NSCLC): 36.8 µM | TGI (U251 CNS): 14.4 µM | TGI (OVCAR-5 ovarian): 35.8 µM | TGI (SK-MEL-28 melanoma): 24.9 µM | TGI (786-0 renal): 22.8 µM | TGI (RPMI-8226 leukemia): > 100 µM | TGI (EKVX NSCLC): 24.9 µM | TGI (SF-539 CNS): 20.1 µM | TGI (MALME-3M melanoma): 30.4 µM | TGI (TK-10 renal): 29.7 µM | TGI (NCI-H23 lung): 10.9 µM | TGI (SK-MEL-5 melanoma): 24.8 µM | TGI (HOP-62 NSCLC): 25.2 µM | TGI (DU-145 prostate): 25.3 µM | TGI (KM12 colon): 20.2 µM | TGI (MDA-N): 24.8 µM | TGI (SNB-19 CNS): 17.9 µM | TGI (HS 578T breast): 32.8 µM | TGI (T-47D breast): 42.6 µM | TGI (RXF 393 renal): 27.4 µM | TGI (SW-620 colon): 31.2 µM | TGI (NCI-H522 lung): 24.1 µM | TGI (SN12C renal): 25.3 µM | TGI (HT29 colon): 8.58 µM | TGI (K-562 leukemia): > 100 µM | TGI (A498 renal): 22.5 µM | TGI (MOLT-4 leukemia): 32.9 µM | TGI (SR leukemia): 28 µM | TGI (OVCAR-3 ovarian): 22.6 µM | TGI (HL-60(TB) leukemia): 63.2 µM | TGI (MCF7 breast): 18.9 µM | TGI (CCRF-CEM leukemia): 38.5 µM | TGI (MDA-MB-435): 13.3 µM

NC(N)=NCCN1CC2CCC(CC2)C1
TGI (M14 melanoma): > 100 µM | TGI (COLO 205 colon): > 100 µM | TGI (PC-3 prostate): > 100 µM | TGI (MDA-MB-231 breast): > 100 µM | TGI (HCT-116 colon): > 100 µM | TGI (NCI-H460 lung): > 100 µM | TGI (SK-MEL-2 melanoma): > 100 µM | TGI (A549 NSCLC): > 100 µM | TGI (HCT-15 colon): > 100 µM | TGI (OVCAR-8 ovarian): > 100 µM | TGI (UACC-62 melanoma): > 100 µM | TGI (HCC-2998 colon): > 100 µM | TGI (NCI-H226 lung): > 100 µM | TGI (SF-268 CNS): > 100 µM | TGI (LOX IMVI melanoma): > 100 µM | TGI (UO-31 renal): > 100 µM | TGI (UACC-257 melanoma): > 100 µM | TGI (OVCAR-4 ovarian): > 100 µM | TGI (ACHN renal): > 100 µM | TGI (HOP-92 NSCLC): > 100 µM | TGI (U251 CNS): > 100 µM | TGI (OVCAR-5 ovarian): > 100 µM | TGI (SK-MEL-28 melanoma): > 100 µM | TGI (786-0 renal): > 100 µM | TGI (RPMI-8226 leukemia): > 100 µM | TGI (EKVX NSCLC): > 100 µM | TGI (SF-539 CNS): > 100 µM | TGI (MALME-3M melanoma): > 100 µM | TGI (TK-10 renal): > 100 µM | TGI (NCI-H23 lung): > 100 µM | TGI (SK-MEL-5 melanoma): > 100 µM | TGI (HOP-62 NSCLC): > 100 µM | TGI (DU-145 prostate): > 100 µM | TGI (KM12 colon): > 100 µM | TGI (IGROV1 ovarian): > 100 µM | TGI (MDA-N): > 100 µM | TGI (NCI/ADR-RES ovarian): > 100 µM | TGI (SNB-19 CNS): > 100 µM | TGI (SNB-75 CNS): 98.7 µM | TGI (HS 578T breast): > 100 µM | TGI (T-47D breast): > 100 µM | TGI (RXF 393 renal): > 100 µM | TGI (SW-620 colon): > 100 µM | TGI (NCI-H522 lung): > 100 µM | TGI (SN12C renal): > 100 µM | TGI (HT29 colon): > 100 µM | TGI (SK-OV-3 ovarian): > 100 µM | TGI (A498 renal): > 100 µM | TGI (MOLT-4 leukemia): > 100 µM | TGI (SR leukemia): > 100 µM | TGI (OVCAR-3 ovarian): > 100 µM | TGI (SF-295 CNS): > 100 µM | TGI (CAKI-1 renal): > 100 µM | TGI (MDA-MB-435): > 100 µM
